The subject of one assay is NCI-H358 human non-small cell lung cancer cell with KRAS G12C mutation. Kind of assay: Cell Titer-Glo cell viability, NCI-H358 cells (72 h). It counts as cell-based. The settings on record: Homo sapiens, NCI-H358, 72 h, class symbols. An excerpt: Effect Example 1: Pharmacodynamic Assay 1 (Determination of the efficacy of the compounds of the present disclosure on NCI-H358 human non-small cell lung cancer cell with KRAS G12C mutation)
The following method was used to determine the effect of the compounds of the present disclosure on tumor cell proliferation.
For the KRAS G12C subtype, NCI-H358 non-small cell lung cancer cells with KRAS G12C mutation were used to determine the efficacy of the compounds in inhibiting cancer cell viability. NCI-H358 cells were cultured in a DMEM medium containing 10% fetal bovine serum, 100 U penicillin and […] streptomycin. The cells were cultured in an incubator with 5% CO2 at 37° C. Cancer cell viability was evaluated by determining the content of ATP with Cell Titer-Glo® kit (Luminescent Cell Viability Assay kit, please refer to the manufacturer's instructions for use) and evaluating the inhibition of cell growth.
The experimental method was proceeded in accordance with the steps in the instructions for the kit, and was described briefly as follows. The test compounds were first dissolved in DMSO to prepare stock solutions, and then the stock solutions were subjected to gradient dilution with the culture media of the corresponding cells, thereby preparing test samples. The final concentrations of the compounds were in the range of 30 μM to 0.01 nM. Tumor cells in logarithmic growth phase were seeded into a 96-well cell culture plate at an appropriate density. After the cell culture plate was left overnight in an incubator with 5% CO2 at 37° C., the test compound samples were added thereto and then the cells were further cultured for 72 hours. After the incubation was complete, an appropriate volume of Cell Titer-Glo® reagent was added into each well, and the cells were incubated at 37° C. for 1 to 4 hours. Then, the […] was read on a microplate reader.
Background: Cellular ATP, detected with luciferase, serves as a proxy for viable cell number.
For the compound `C=CC(=O)N1CCN(c2c(C#N)c(=O)n(-c3ccccc3C(C)C)c3cc(-c4cc(C)cc(C)c4N)c(Cl)cc23)[C@@H](C)C1` [Compound I-81], the concentration for half-maximal inhibition (IC50) (as a rule, the concentration at which inhibition is half-maximal) lay within 100 to 1000 nM.
Turning to `C=CC(=O)N1CCN(c2c(C#N)c(=O)n(-c3ccccc3C(C)C)c3cc(-c4cc(Cl)cc(C)c4N)c(Cl)cc23)[C@@H](C)C1` [Compound I-76], the IC50 is less than 100 nM.
As for `C=CC(=O)N1CCN(c2c(C#N)c(=O)n(-c3ccccc3C(C)C)c3cc(-c4ccc(C)c(O)c4)c(Cl)cc23)[C@@H](C)C1` [Compound I-67], the IC50 was in the range of 100 to 1000 nM.
On to `C=CC(=O)N1CCN(c2c(C#N)c(=O)n(-c3ccccc3C(C)C)c3cc(-c4ccc(C#N)cc4C)c(Cl)cc23)[C@@H](C)C1` [Compound I-50], for which the IC50 was 100 to 1000 nM.
In turn, `C=CC(=O)N1CCN(c2c(C#N)c(=O)n(-c3ccccc3C(C)C)c3cc(-c4ccc(Cl)cc4Cl)c(Cl)cc23)[C@@H](C)C1` [Compound I-38] came in with a 50% inhibitory concentration (IC50) of 100 to 1000 nM.
Regarding `C=CC(=O)N1CCN(c2c(C#N)c(=O)n(-c3ccccc3C(C)C)c3cc(-c4ccccc4CO)c(Cl)cc23)[C@@H](C)C1` [Compound I-65], the concentration for half-maximal inhibition (IC50) lay in the range of 100 to 1000 nM.
`C=CC(=O)N1CCN(c2c(C#N)c(=O)n(-c3ccccc3C(C)C)c3cc(-c4cc(C)cc(Cl)c4N)c(Cl)cc23)[C@@H](C)C1` [Compound I-80]: the half-maximal inhibitory concentration (IC50) was less than 100 nM.
For `C=CC(=O)N1CCN(c2c(C#N)c(=O)n(-c3ccccc3C(C)C)c3cc(-c4cc(Cl)ccc4F)c(Cl)cc23)[C@@H](C)C1` [Compound I-37], the IC50 lay within 100 to 1000 nM.
In turn, `C=CC(=O)N1CCN(c2c(C#N)c(=O)n(-c3ccccc3C(C)C)c3cc(-c4ccc(C(F)(F)F)nc4)c(Cl)cc23)[C@@H](C)C1` [Compound I-40] came in with an IC50 of more than 1000 nM.
On the same count and under the same terms, as for `C=CC(=O)N1CCN(c2c(C#N)c(=O)n(-c3ccccc3C(C)C)c3cc(-c4ccc(N)cc4F)c(Cl)cc23)[C@@H](C)C1` [Compound I-45], the figure is 100 to 1000 nM; as for `C=CC(=O)N1CCN(c2c(C#N)c(=O)n(-c3ccccc3C(C)C)c3cc(-c4ccnc5[nH]ccc45)c(Cl)cc23)[C@@H](C)C1` [Compound I-52], 100 to 1000 nM.
Consider `C=CC(=O)N1CCN(c2c(C#N)c(=O)n(-c3ccccc3C(C)C)c3cc(-c4ccccc4C(F)(F)F)c(Cl)cc23)[C@@H](C)C1` [Compound I-46], for which the half-maximal inhibitory concentration (IC50) is more than 1000 nM.
For `C=CC(=O)N1CCN(c2c(C#N)c(=O)n(-c3ccccc3C(C)C)c3cc(-c4cc(Cl)cc(F)c4N)c(Cl)cc23)[C@@H](C)C1` (atropisomer, axis not shown) [Compound I-78], the IC50 was less than 100 nM.
In turn, `C=CC(=O)N1CCN(c2c(C#N)c(=O)n(-c3ccccc3C(C)C)c3cc(-c4cccc5ccncc45)c(Cl)cc23)[C@@H](C)C1` [Compound I-23] came in with an IC50 of 100 to 1000 nM.
On the same count and under the same terms, then `C=CC(=O)N1CCN(c2c(C#N)c(=O)n(-c3c(C(C)C)ncnc3C(C)C)c3cc(-c4c(C)ccc5[nH]ncc45)c(Cl)cc23)[C@@H](C)C1` [Compound I-86-1], with less than 100 nM.
On the same count and under the same terms, then `C=CC(=O)N1CCN(c2c(C#N)c(=O)n(-c3ccccc3C(C)C)c3cc(-c4cc(N)ccc4F)c(Cl)cc23)[C@@H](C)C1` [Compound I-13], with 100 to 1000 nM; and `C=CC(=O)N1CCN(c2c(C#N)c(=O)n(-c3ccccc3C(C)C)c3cc(-c4cccc(F)c4)c(Cl)cc23)[C@@H](C)C1` [Compound I-14], with 100 to 1000 nM; and `C=CC(=O)N1CCN(c2c(C#N)c(=O)n(-c3ccccc3C(C)C)c3cc(-c4cccc5c4OCCO5)c(Cl)cc23)[C@@H](C)C1` [Compound I-26], with 100 to 1000 nM.
As to `C=CC(=O)N1CCN(c2c(C#N)c(=O)n(-c3ccccc3C(C)C)c3cc(-c4cccc(Cl)c4F)c(Cl)cc23)[C@@H](C)C1` [Compound I-36], the IC50 is 100 to 1000 nM.
In the case of `C=CC(=O)N1CCN(c2c(C#N)c(=O)n(-c3ccccc3C(C)C)c3cc(-c4ccc(Cl)c5ccccc45)c(Cl)cc23)[C@@H](C)C1` [Compound I-24], the IC50 is less than 100 nM.
Still for that read-out and setting: then `C=CC(=O)N1CCN(c2c(C#N)c(=O)n(-c3ccccc3C(C)C)c3cc(-c4ccc(F)c5ccccc45)c(Cl)cc23)[C@@H](C)C1` [Compound I-22], with less than 100 nM.
The compound `C=CC(=O)N1CCN(c2c(C#N)c(=O)n(-c3ccccc3C(C)C)c3cc(-c4ccc(Cl)c(Cl)c4C)c(Cl)cc23)[C@@H](C)C1` [Compound I-29] had an IC50 of 100 to 1000 nM.
The compound `C=CC(=O)N1CCN(c2c(C#N)c(=O)n(-c3ccccc3C(C)C)c3cc(-c4c(C)cnn4C)c(Cl)cc23)[C@@H](C)C1` [Compound I-21] registered a half-maximal inhibitory concentration (IC50) of 100 to 1000 nM.
As to `C=CC(=O)N1CCN(c2c(C#N)c(=O)n(-c3ccccc3C(C)C)c3cc(-c4cnc(N)nc4)c(Cl)cc23)[C@@H](C)C1` [Compound I-62], the IC50 is 100 to 1000 nM.
The same measure, in the same setting: then `C=CC(=O)N1CCN(c2c(C#N)c(=O)n(-c3ccccc3C(C)C)c3cc(-c4cccc(O)c4F)c(Cl)cc23)[C@@H](C)C1` [Compound I-71], with 100 to 1000 nM; and `C=CC(=O)N1CCN(c2c(C#N)c(=O)n(-c3ccccc3C(C)C)c3cc(-c4cn[nH]c4)c(Cl)cc23)[C@@H](C)C1` [Compound I-54], with 100 to 1000 nM; and `C=CC(=O)N1CCN(c2c(C#N)c(=O)n(-c3ccccc3C(C)C)c3cc(-c4ccccc4C4CC4)c(Cl)cc23)[C@@H](C)C1` [Compound I-75], with 100 to 1000 nM.
Compound `C=CC(=O)N1CCN(c2c(C#N)c(=O)n(-c3ccccc3C(C)C)c3cc(-c4cccc(N)c4F)c(Cl)cc23)[C@@H](C)C1` [Compound I-77] had an IC50 of 100 to 1000 nM.
The compound `C=CC(=O)N1CCN(c2c(C#N)c(=O)n(-c3ccccc3C(C)C)c3cc(-c4ccc(F)cc4O)c(Cl)cc23)[C@@H](C)C1` [Compound I-61] displayed a half-inhibitory concentration (IC50) of less than 100 nM.
As for `C=CC(=O)N1CCN(c2c(C#N)c(=O)n(-c3ccccc3C(C)C)c3cc(-c4ccc(C5CC5)cc4)c(Cl)cc23)[C@@H](C)C1` [Compound I-53], the IC50 lay in the range of 100 to 1000 nM.

The assay is the same for the next values; noted with them: class symbols.
Take `C=CC(=O)N1CCN(c2c(C#N)c(=O)n(-c3c(C(C)C)ncnc3C(C)C)c3cc(-c4c(OC)ccc(Cl)c4F)c(Cl)cc23)[C@@H](C)C1` [Compound I-87-2]: the concentration for half-maximal inhibition (IC50) was in the range of 100 to 1000 nM.
Take `C=CC(=O)N1CCN(c2c(C#N)c(=O)n(-c3c(C)ccnc3C(C)C)c3cc(-c4c(C)ccc5[nH]ncc45)c(Cl)cc23)[C@@H](C)C1` [Compound I-83-2]: the concentration for half-maximal inhibition (IC50) fell in the range of 100 to 1000 nM.
The compound `C=CC(=O)N1CCN(c2c(C#N)c(=O)n(-c3ccccc3C(C)C)c3cc(-c4c(OC)ccc(Cl)c4F)c(Cl)cc23)[C@@H](C)C1` (single isomer, unassigned) [Compound I-7-2] came in with a half-inhibitory concentration (IC50) of 100 to 1000 nM.
Still for that read-out and setting: then `C=CC(=O)N1CC2(CCN(c3c(C#N)c(=O)n(-c4ccccc4C(C)C)c4cc(-c5c(C)ccc6[nH]ncc56)c(Cl)cc34)CC2)C1` (single isomer, unassigned) [Compound I-5-1], with more than 1000 nM; and `C=CC(=O)N1C[C@H](C)N(c2c(C#N)c(=O)n(-c3ccccc3C(C)C)c3cc(-c4c(C)ccc5[nH]ncc45)c(Cl)cc23)C[C@H]1C` (single isomer, unassigned) [Compound I-4-2], with 100 to 1000 nM.

Staying with this assay, now noted: numeric values.
Compound `C=CC(=O)N1CCN(c2c(C#N)c(=O)n(-c3ccccc3C(C)C)c3cc(-c4c(C)ccc5[nH]ncc45)c(Cl)cc23)[C@H](C)C1` (single isomer, unassigned) [Compound I-3-1] registered an IC50 of 1980 nM.
Regarding `C=CC(=O)N1CCN(c2c(C#N)c(=O)n(-c3ccccc3C(C)C)c3cc(-c4c(C)ccc5[nH]ncc45)c(Cl)cc23)[C@H](C)C1` (single isomer, unassigned) [Compound I-3-2], 250 nM corresponded to half-maximal inhibition (IC50).

These data come from patent US20220064141A1, “BENZOPYRIDONE HETEROCYCLIC COMPOUND AND USE THEREOF” (BrightGene Bio-Medical Technology Co., Ltd., priority 2019, published 2022).
